In ChEMBL document CHEMBL5614367, “Hydroxamic acid hybrids: Histone deacetylase inhibitors with anticancer therapeutic potency” (Eur J Med Chem, 2023):

Experiments:
[1] = biological target: T1, Histone deacetylase 8 (Homo sapiens, UniProt Q9BY41); test: Inhibition of HDAC8 (unknown origin)
T1 sequence (Q9BY41 whole entry): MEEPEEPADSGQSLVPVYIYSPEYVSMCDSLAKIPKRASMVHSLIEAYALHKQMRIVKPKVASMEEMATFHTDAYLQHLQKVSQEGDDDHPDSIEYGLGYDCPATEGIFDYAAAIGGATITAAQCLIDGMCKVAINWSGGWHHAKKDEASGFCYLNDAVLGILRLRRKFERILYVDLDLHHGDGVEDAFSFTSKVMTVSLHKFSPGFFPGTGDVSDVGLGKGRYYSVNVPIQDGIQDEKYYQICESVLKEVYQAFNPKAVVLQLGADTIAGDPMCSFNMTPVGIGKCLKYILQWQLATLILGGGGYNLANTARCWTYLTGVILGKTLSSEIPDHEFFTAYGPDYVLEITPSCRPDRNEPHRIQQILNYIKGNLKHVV

[2] = Metabolic stability in liver microsomes (unknown origin) assessed as clearance; format: ADME, Microsome; conditions: read-out: CLH
[3] = Metabolic stability in liver microsomes (unknown origin) assessed as half life; format: ADME, Microsome
[4] = tested on: BE(2)-C; test: Antitumor activity against human BE2C cells xenografted in mouse assessed as tumor growth inhibition at 50 mg/kg, ip relative to control; format: functional; conditions: read-out: TGI
[5] = biological target: T2, Protein deacetylase HDAC6 (Homo sapiens, UniProt Q9UBN7); test: Inhibition of HDAC6 (unknown origin)
T2 sequence (Q9UBN7 whole entry): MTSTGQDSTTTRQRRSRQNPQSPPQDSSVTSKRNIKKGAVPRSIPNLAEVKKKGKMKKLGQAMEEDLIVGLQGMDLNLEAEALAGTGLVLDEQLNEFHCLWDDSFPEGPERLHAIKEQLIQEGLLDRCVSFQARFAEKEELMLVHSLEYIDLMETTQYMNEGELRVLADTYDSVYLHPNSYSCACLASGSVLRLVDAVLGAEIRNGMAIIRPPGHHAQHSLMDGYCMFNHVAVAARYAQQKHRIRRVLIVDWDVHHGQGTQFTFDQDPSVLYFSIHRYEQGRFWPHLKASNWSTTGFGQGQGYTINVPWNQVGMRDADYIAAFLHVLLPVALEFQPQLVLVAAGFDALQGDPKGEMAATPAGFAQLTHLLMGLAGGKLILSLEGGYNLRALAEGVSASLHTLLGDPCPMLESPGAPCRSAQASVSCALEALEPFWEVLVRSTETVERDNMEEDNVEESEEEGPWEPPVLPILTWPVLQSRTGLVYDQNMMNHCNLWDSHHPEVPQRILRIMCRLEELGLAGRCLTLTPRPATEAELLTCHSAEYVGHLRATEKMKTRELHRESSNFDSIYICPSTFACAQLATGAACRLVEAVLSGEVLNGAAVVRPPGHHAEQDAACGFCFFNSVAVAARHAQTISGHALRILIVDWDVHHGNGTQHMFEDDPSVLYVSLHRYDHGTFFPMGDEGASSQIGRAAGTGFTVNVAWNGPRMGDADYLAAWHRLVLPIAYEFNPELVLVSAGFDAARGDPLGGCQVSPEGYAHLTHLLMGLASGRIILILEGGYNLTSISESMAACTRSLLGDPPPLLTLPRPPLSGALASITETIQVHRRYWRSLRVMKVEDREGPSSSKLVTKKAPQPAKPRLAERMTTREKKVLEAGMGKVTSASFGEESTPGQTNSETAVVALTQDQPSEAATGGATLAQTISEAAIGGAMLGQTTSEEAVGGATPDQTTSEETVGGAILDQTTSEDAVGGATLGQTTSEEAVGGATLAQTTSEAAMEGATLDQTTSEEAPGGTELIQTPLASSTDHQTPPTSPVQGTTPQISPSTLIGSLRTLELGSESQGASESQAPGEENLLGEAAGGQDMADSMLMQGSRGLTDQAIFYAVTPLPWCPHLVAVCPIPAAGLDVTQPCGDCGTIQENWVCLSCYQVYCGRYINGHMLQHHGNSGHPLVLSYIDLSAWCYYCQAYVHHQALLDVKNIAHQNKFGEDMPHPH

[6] = tested on: U-87 MG; test: cells; format: functional, cell-based, U-87MG ATCC; conditions: Homo sapiens, 72 h
Description: Antiproliferative activity against human U-87 MG cells assessed as inhibition of cell growth measured after 72 hrs by MTT assay

[7] = tested on: C6; test: cells; format: functional, cell-based; conditions: Rattus norvegicus, C6, 72 h
Description: Antiproliferative activity against rat C6 cells assessed as inhibition of cell growth measured after 72 hrs by MTT assay

[8] = tested on: U-87 MG; test: Antitumor activity against luciferase-transferred human U-87 MG cells xenografted in athymic nude mouse assessed as survival time at 25 mg/kg, po measured for 20 days; format: functional, U-87MG ATCC; conditions: time 20 day
[9] = tested on: C6; test: Antitumor activity against rat C6 cells allografted in Sprague-Dawley rat assessed as survival time at 20 mg/kg, po measured for 20 days; format: functional; conditions: time 20 day
[10] = tested on: U-266; test: cells; format: functional, cell-based; conditions: Homo sapiens, U-266, 48 h
[11] = tested on: U-937; test: cells; format: functional, cell-based; conditions: Homo sapiens, U-937, 48 h
[12] = tested on: HepG2; test: cells; format: functional, cell-based; conditions: Homo sapiens, HepG2, 48 h
[13] = tested on: Calu-3; test: cells; format: functional, cell-based; conditions: Homo sapiens, Calu-3, 48 h
[14] = cells; format: functional, cell-based; conditions: Homo sapiens, SPCA1, 48 h
[15] = tested on: MDA-MB-231; test: cells; format: functional, cell-based; conditions: Homo sapiens, MDA-MB-231, 48 h
[16] = tested on: MDA-MB-468; test: cells; format: functional, cell-based; conditions: Homo sapiens, MDA-MB-468, 48 h
[17] = tested on: SK-OV-3; test: cells; format: functional, cell-based; conditions: Homo sapiens, SK-OV-3, 48 h
[18] = tested on: K562; test: cells; format: functional, cell-based; conditions: Homo sapiens, K562, 48 h
[19] = tested on: PANC-1; test: cells; format: functional, cell-based; conditions: Homo sapiens, PANC-1, 48 h
[20] = biological target: Histone deacetylase 3 (Homo sapiens, UniProt O15379); test: Inhibition of recombinant HDAC3 (unknown origin) using Boc-Lys (acetyl)-AMC as substrate preincubated for 1 hr followed by substrate addition and measured after 2 hrs by fluorescence based analysis
Chain of Histone deacetylase 3 (O15379 whole entry): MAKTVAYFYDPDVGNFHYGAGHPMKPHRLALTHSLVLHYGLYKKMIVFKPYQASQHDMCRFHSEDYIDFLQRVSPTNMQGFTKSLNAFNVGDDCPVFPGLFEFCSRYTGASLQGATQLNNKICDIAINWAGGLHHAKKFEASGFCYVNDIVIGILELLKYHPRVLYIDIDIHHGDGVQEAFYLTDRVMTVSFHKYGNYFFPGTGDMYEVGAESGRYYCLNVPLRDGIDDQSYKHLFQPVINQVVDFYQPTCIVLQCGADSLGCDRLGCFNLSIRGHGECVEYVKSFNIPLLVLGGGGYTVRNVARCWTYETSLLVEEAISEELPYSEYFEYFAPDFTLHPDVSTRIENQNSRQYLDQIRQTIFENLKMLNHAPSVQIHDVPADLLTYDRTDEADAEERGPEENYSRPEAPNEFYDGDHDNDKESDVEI

[21] = tested on: HepG2; test: animal or person; format: functional, Homo sapiens; conditions: Mus musculus, HepG2, po, 384 h, route ig, time 16 day
[22] = tested on: A-431; test: Antiproliferative activity against human A-431 cells assessed as inhibition of cell growth by MTT assay; format: functional, cell-based
[23] = tested on: MCF7; test: Antiproliferative activity against human MCF7 cells assessed as inhibition of cell growth by MTT assay; format: functional, cell-based
[24] = tested on: HCT-116; test: Antiproliferative activity against human HCT-116 cells assessed as inhibition of cell growth by MTT assay; format: functional, cell-based
[25] = biological target: E3 ubiquitin-protein ligase Mdm2 (Homo sapiens) (UniProt Q00987); test: Inhibition of MDM2 (unknown origin) using biotinylated P53 peptide as substrate at 1 uM by HTRF assay relative to control
Chain of E3 ubiquitin-protein ligase Mdm2 (Homo sapiens) (Q00987 whole entry, looked up): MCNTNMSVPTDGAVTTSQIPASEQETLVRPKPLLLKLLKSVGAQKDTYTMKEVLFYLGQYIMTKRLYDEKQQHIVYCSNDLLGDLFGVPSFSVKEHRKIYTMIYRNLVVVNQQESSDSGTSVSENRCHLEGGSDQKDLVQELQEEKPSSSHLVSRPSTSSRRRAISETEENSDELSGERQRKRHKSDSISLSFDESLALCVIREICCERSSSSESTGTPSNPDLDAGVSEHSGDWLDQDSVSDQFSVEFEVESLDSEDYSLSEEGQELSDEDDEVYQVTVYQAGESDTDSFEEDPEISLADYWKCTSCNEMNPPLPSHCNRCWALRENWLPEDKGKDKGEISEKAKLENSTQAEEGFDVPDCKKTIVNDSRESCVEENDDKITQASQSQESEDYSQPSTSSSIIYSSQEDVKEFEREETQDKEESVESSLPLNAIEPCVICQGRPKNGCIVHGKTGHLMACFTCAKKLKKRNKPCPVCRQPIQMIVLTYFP

[26] = Metabolic stability in rat liver microsomes assessed as half life; format: ADME, Microsome
[27] = biological target: Histone deacetylase; test: Inhibition of HDAC in human HeLa cell nuclear extract using Boc-Lys(Ac)-AMC as substrate; format: subcellular, Nucleus
[28] = Metabolic stability in human liver microsomes assessed as half life; format: ADME, Microsome
[29] = Toxicity in female BALB/c mouse assessed as maximum tolerable dose; conditions: in vivo
[30] = Half life in BALB/c mouse at 50 mg/kg, po; format: ADME, organism-based; conditions: in vivo
[31] = Tmax in BALB/c mouse at 50 mg/kg, po; format: ADME, organism-based; conditions: in vivo
[32] = Cmax in BALB/c mouse at 50 mg/kg, po; format: ADME, organism-based; conditions: in vivo
[33] = Oral bioavailability in BALB/c mouse at 50 mg/kg; format: ADME, organism-based; conditions: in vivo
[34] = tested on: SK-OV-3; test: Antiproliferative activity against human SK-OV-3 cells assessed as inhibition of cell growth incubated for 72 hrs by CCK-8 assay; format: functional, cell-based; conditions: SK-OV-3, 72 h
[35] = tested on: A2780; test: Antiproliferative activity against human A2780 cells assessed as inhibition of cell growth incubated for 72 hrs by CCK-8 assay; format: functional, cell-based; conditions: A2780, 72 h
[36] = tested on: SK-OV-3; test: Antitumor activity against human SK-OV-3 cells xenografted in female Balb/c nude mouse assessed as reduction in tumor growth at 50 mg/kg, sc administered once a day and measured every 2 to 3 days for 19 days relative to control; format: functional; parameters: scale not given: the % may be the effect or the level left; conditions: time 19 day

COc1cc(-c2cccc(-c3ccc(/C=C/C(=O)NO)cc3)n2)cc(OC)c1OC
IC50 [1]: 117 nM
CLint scaled [2]: 22.8 mL/min/kg
half-life [3]: 54.8 min
inhibition in vivo at 50 mg/kg [4]: 61%

O=C(/C=C/c1cccc(S(=O)(=O)n2ccc3cccnc32)c1)NO
IC50 [5]: 32 nM
IC50 [6]: 1850 nM
IC50 [7]: 2250 nM
Survival [8]: >20 days
Survival [9]: >20 days

Cn1cc(CCCC(=O)Nc2ccc(C(=O)NO)cc2)c2ccccc21
IC50 [10]: 160 nM
IC50 [11]: 160 nM
IC50 [12]: 160 nM
IC50 [13]: 160 nM
IC50 [14]: 160 nM
IC50 [15]: 160 nM
IC50 [16]: 160 nM
IC50 [17]: 160 nM
IC50 [18]: 160 nM
IC50 [19]: 160 nM
IC50 [20]: 13.9 nM
inhibition in vivo at 50 mg/kg [21]: 33.1%

O=C(CCCCCCC(=O)N1CCC(C(=O)Nc2ccc([C@@H]3[C@H]4CSCN4[C@]4(C(=O)Nc5cc(Cl)ccc54)[C@H]3C(=O)c3ccccc3)cc2)CC1)NO
IC50 [22]: 1370 nM
IC50 [23]: 1370 nM
IC50 [24]: 1370 nM
inhibition [25]: 65%

CC(C)n1cnc2c(-c3cccc(OCCCC(=O)NO)c3)nc(N3CCOCC3)nc21
half-life [26]: > 45 min
IC50 [27]: 35 nM
half-life [28]: > 45 min
MTD [29]: 200 mg/kg
half-life [30]: 113 min
Tmax [31]: 9 min
Cmax [32]: 1620 ng/mL
bioavailability [33]: 21%

COc1ccc(-c2cc(-c3ccc(C(C)C)cc3)cnc2NCc2ccc(C(=O)NO)cc2)cc1
IC50 [5]: 180 nM
IC50 [34]: 870 nM
IC50 [35]: 5400 nM
Activity [36]: ~35%
